Data published in US5025024A, “Therapeutically active fluoro-substituted compound” (priority 1988, dated 1991).

Legend:
gastric acid secretion [1] = assay: Inhibition of Gastric Acid Secretion in the Conscious Dog; assay type: in vivo, Harrier dogs; conditions: for ED50: Canis lupus familiaris, dog, histamine-stimulated, acid output 2 h after dosing
Protocol: (§1) The potency for inhibition of acid secretion has been measured in the male rat and the dog, both intravenously and intraduodenally. When it comes to relevance of the animal test data for potency of a given compound in man for the present type of compounds, it is believed that potency in man will correspond to a level somewhere between what is measured in the male rat and what is measured in the dog.
(§2) Inhibition of Gastric Acid Secretion and Bioavailability in the Conscious Dog
(§3) Harrier dogs of either sex were used. They were equipped with a duodenal fistula for the administration of test compounds or vehicle and a cannulated ventricular fistula for the collection of gastric secretions.
Before secretory tests the animals were fasted for about 18 h but water was freely allowed. Gastric acid secretion was stimulated by a 4 h infusion of histamine dihydrochloride (12 ml/h) at a dose producing about 80% of the individual maximal secretory response, and gastric juice collected in consecutive 30-min fractions. Test substance or vehicle was given id or iv 1 h after starting the histamine infusion, in a volume of 0.5 ml/kg body weight. The acidity of the gastric juice samples were determined by titration to pH 7.0, and the acid output calculated. The acid output in the collection periods after administration of test substance or vehicle were expressed as fractional responses, setting the acid output in the fraction preceding administration to 1.0. Percentage inhibition was calculated from fractional responses elicited by test compound and vehicle. ED50 -values were obtained by graphical interpolation on log dose-response curves, or estimated from single-dose experiments under the assumption of the same slope of the dose-response curve for all test compounds. All results reported are based on acid output 2 h after dosing.

[2] = Bioavailability in the Conscious Dog (AUC method); assay type: in vivo, Harrier dogs; conditions: plasma, id vs iv, AUCid/AUCiv, read-out: Bioavailability measured by the AUC-method, F %, Dog
Protocol: (§4) Bioavailability is assessed by calculating the quotient between the area under plasma concentration (AUC) curve following intraduodenal (id) administration and intravenous (iv) administration from the rat or the dog. Low, therapeutically relevant doses, were used. This method is scientifically recognized as valid for assessing bioavailability (see for instance: M. Rowland and T. N. Tozer, Clinical Pharmacokinetics, 2nd ed., Lea & Febiger, London 1989, p 42).
as §2, §3
Blood samples for the analysis of test compound concentration in plasma were taken at intervals up to 3 h after dosing. Plasma was separated and frozen within 30 min after collection. AUC (area under the plasma concentration-time curve), extrapolated to infinite time, was calculated by the linear trapezoidal rule. The systemic bioavailability (F%) after id administration was calculated as 100×(AUCid /AUCiv).

[3] = Bioavailability in the Male Rat (AUC method); assay type: in vivo, male rats of the Sprague-Dawley strain; conditions: id vs iv, 4 μmol/kg; for bioavailability: blood, 4 umol/kg, read-out: Bioavailability measured by the AUC-method, F %, Rat
Text: The results from tests on two different animal species, rat and dog, vary in regard to measured level of bioavailability for the same compound. We believe that the rat is the more relevant species for bioavailability testing. This is based on our belief that liver metabolism has the most predominant impact upon bioavailability, and that the liver metabolic pattern in man for this type of compounds is quite similar to that of the male rat (more so than of the female rat and the dog). Moreover, test results of bioavailability in the male rat will tend to give a broader "spread" compared with the test results in the dog, and thus the male rat model will give more clear differences in bioavailability between different compounds. Stated in another way, the bioavailability as tested in the male rat can be expected to give a better estimate of the relative differences in man between different test compounds compared with the test results obtained when using the same compounds in the dog.
as §4
Bioavailability in the Male Rat
Male adult rats of the Sprague-Dawley strain were used. One day, prior to the experiments, all rats were prepared by cannulation of the left carotid artery under anaesthesia. The rats used for the intravenous experiments, were also cannulated in the jugular vein. […]
The area under the blood concentration vs time curve, AUC, was determined by the linear trapezoidal rule and extrapolated to infinity by dividing the last determined blood concentration by the elimination rate constant in the terminal phase. The systemic bioavailability (F%) following intraduodenal administration was calculated as [formula]

[4] = Chemical Stability at pH 7; assay type: physicochemical; conditions: pH 7, 37° C., aqueous buffer solution; for half-life: read-out: Chemical Stability at pH 7, half-life (t 1/2) (converted)
Protocol: The chemical stability of various compounds of the invention has been followed kinetically at low concentration at 37° C. in aqueous buffer solution at different pH values. The results in Table 3 show the half life (t1/2) at pH 7, that is the time period after which half the amount of the original compound remains unchanged.

[5] = Inhibition of Gastric Acid Secretion in the Conscious Male Rat; assay type: in vivo, male rats of the Sprague-Dawley strain; conditions: in vivo, ratio ED50 iv/ED50 id, read-out: "Bioavailability" measured by the Rough Screening Model, Rat ED50 iv/ED50 id
Protocol: (§5) Since the bioavailability model described above is time and labour intensive, and requires a large number of plasma analyses, also a rough screening model, based on relative potencies to inhibit acid secretion, has been used (see for instance: A. Goth, Medical Pharmacology, 7th ed., C. V. Mosby Company, Saint Louis 1974, p 19). Thus, the ratio (called "Bioavailability" in Table 3) between the ED50 at intravenous administration and the ED50 at intraduodenal administration was calculated.
as §1
(§6) Inhibition of Gastric Acid Secretion in the Conscious Male Rat
(§7) Male rats of the Sprague-Dawley strain were used. They were equipped with cannulated fistulae in the stomach (lumen) and the upper part of the duodenum, for collection of gastric secretions and administration of test substances, respectively. A fourteen days recovery period after surgery was allowed before testing commenced.
(§8) Before secretory tests, the animals were deprived of food but not water for 20 h. The stomach was repeatedly washed through the gastric cannula, and 6 ml of Ringer-Glucose given s.c. Acid secretion was stimulated with a infusion during 3.5 h (1.2 ml/h, s.c.) of pentagastrin and carbachol (20 and 110 nmol/kg h, respectively), during which time gastric secretions were collected in 30-min fractions. Test substances or vehicle were given iv or id at 90 min after starting the stimulation, in a volume of 1 ml/kg. Gastric juice samples were titrated to pH 7.0 with NaOH, 0.1 mol/L, and acid output calculated as the product of titrant volume and concentration. Further calculations were based on group mean responses from 4-5 rats. The acid output during the periods after administration of test substances or vehicle were expressed as fractional responses, setting the acid output in the 30-min period preceding administration to 1.0. Percentage inhibition was calculated from the fractional responses elicited by test compound and vehicle. ED50 -values were obtained from graphical interpolation on log dose-response curves, or estimated from single-dose experiments assuming a similar slope for all dose-response curves. An estimation of the bioavailability was obtained by calculating the ratio ED50 iv/ED50 id. The results reported are based on gastric acid secretion during the second hour after drug/vehicle administration.

gastric acid secretion [6] = assay: as above; assay type: in vivo, male rats of the Sprague-Dawley strain; conditions: 2 h, pentagastrin and carbachol stimulation, second hour after administration
Protocol: as §5, §1, §6, §7, §8

[7] = id, read-out: Inhibition of acid secretion, Rat ED50, id
[8] = iv, read-out: Inhibition of acid secretion, Rat ED50, iv

Row | bioavailability [2] [%] | bioavailability [3] [%] | Chemical Stability at pH 7, half-life (t 1/2) [4] [h] | half-life [4] [h] | bioavailability [5] [%] | Bioavailability measured by the AUC-method, F %, Rat [3] [%] | Structure (SMILES) | ED50 (gastric acid secretion [1]; id, read-out: Inhibition of acid secretion, Dog ED50, id) [µmol/kg] | ED50 (gastric acid secretion [1]; iv, read-out: Inhibition of acid secretion, Dog ED50, iv) [µmol/kg] | ED50 (gastric acid secretion [6]; [7]) [µmol/kg] | ED50 (gastric acid secretion [6]; [8]) [µmol/kg] | inhibition (of acid secretion), Dog 1 (gastric acid secretion [1]; Dog 1, 3 μmol/kg, id) [%] | inhibition (of acid secretion), Dog 2 (gastric acid secretion [1]; Dog 2, 3 μmol/kg, id) [%]
1 | 95 | 96 | 23 | 23 | 40 | – | COc1ccnc(C[S+]([O-])c2nc3c(F)cccc3[nH]2)c1 (stereo not drawn) [Example 1, 4-fluoro-2-[[(4-methoxy-2-pyridinyl)methyl]sulfinyl]-1H-benzimidazole] | 0.9 | 0.8 | 2.4 | 0.96 | – | –
2 | – | 31 | 14 | 14 | 45 | 31 | CC(C)Oc1ccnc(C[S+]([O-])c2nc3cc(F)ccc3[nH]2)c1 (stereo not drawn) [Ref., 5-fluoro-2-[[(4-isopropoxy-2-pyridinyl)methyl]-sulfinyl]-1H-benzimidazole] | – | – | 4 | 1.8 | 95 | 98
